# Experimental data published in US11535597B2, “Photoreactive ligands and uses thereof” (The Scripps Research Institute, priority 2017, dated 2022).
# Entries after “also recorded” stand apart in the source; their conditions may differ.
# Key:
# cathepsin B (CTSB) = target: T1, cathepsin B (CTSB) (Homo sapiens, UniProt P07858); test: Mapping and competition of FFF probe-modified peptide on cathepsin B (CTSB); assay type: binding; conditions: HEK293T cells co-treated with 9 (200 μM)
# T1 construct: endogenous in cells; host or cells: HEK293T
# Procedure: (§1) Preparation and analysis was adapted from methods previously reported. In brief, for global mapping of fragment probe-modified peptides, separate 10 cm dishes of cells were treated with probes (200-250 μM) in 3.0 mL of DMEM (serum-free) and (if applicable) competitor ligands, proteomes harvested and subjected to click chemistry conditions with either light or heavy isotopically labeled biotin-TEV-azide (10 μL of 5 mM stocks in DMSO, final concentration=100 μM), TCEP, ligand and CuSO4 as detailed above. The samples were allowed to react for 1 h at which point the samples were centrifuged (16,000 g, 5 min, 4° C.). The resulting pellets were sonicated in ice-cold methanol (500 μL) and the resuspended light- and heavy-labeled samples were then combined and centrifuged (16,000 g, 5 min, 4° C.). The pellets were then solubilized in PBS containing 1.2% SDS (1 mL) with sonication and heating (5 min, 95° C.). Samples were transferred to falcon tubes containing DPBS (5 mL), to which a 100 μL of streptavidin-agarose beads slurry was added. […]
# (§2) The resulting probe-modified peptides were collected for MS analysis, which was performed as described above with differences in the salt bumps applied in the chromatographic gradients which in this case were 0%, 30%, 60%, 90% and 100% NH4OAc (500 μM). […] The isoTOP ratios for probe labeled peptides were quantified using the in-house software CIMAGE. […]
# [1] = system: proteins in HEK293T cells; test: MS-based mapping of FFF probe-modified peptides (isoTOP, sites of labeling); assay type: binding, human
# Procedure: (§3) Preparation and analysis was adapted from methods previously reported. In brief, for global mapping of fragment probe-modified peptides, separate 10 cm dishes of cells were treated with probes (200-250 μM) in 3.0 mL of DMEM (serum-free) and (if applicable) competitor ligands, proteomes harvested and subjected to click chemistry conditions with either light or heavy isotopically labeled biotin-TEV-azide (10 μL of 5 mM stocks in DMSO, final concentration=100 μM), TCEP, ligand and CuSO4 as detailed above. The samples were allowed to react for 1 h at which point the samples were centrifuged (16,000 g, 5 min, 4° C.). The resulting pellets were sonicated in ice-cold methanol (500 μL) and the resuspended light- and heavy-labeled samples were then combined and centrifuged (16,000 g, 5 min, 4° C.). The pellets were then solubilized in PBS containing 1.2% SDS (1 mL) with sonication and heating (5 min, 95° C.). Samples were transferred to falcon tubes containing DPBS (5 mL), to which a 100 μL of streptavidin-agarose beads slurry was added. After incubation, the beads (3 hr) were pelleted by centrifugation (1,400 g, 3 min) and were washed (2×10 mL PBS and 2×10 mL water). The beads were transferred to eppendorf tubes with 1 mL DPBS, centrifuged (1,400 g, 3 min), and resuspended in PBS containing 6 M urea. To this was added 10 mM DTT (25 μL of a 200 mM stock in water) and the beads were incubated at 65° C. for 15 mins. 20 mM iodoacetamide (25 μL of a 400 mM stock in water) was then added and allowed to react at 37° C. for 30 mins with shaking. The bead mixture was diluted with 900 μL PBS, pelleted by centrifugation (1,400 g, 3 min), and resuspended in 200 μL 2M urea (DPBS) containing trypsin and CaCl2 as described above. The beads were separated from the digest by centrifugation (1,000 g, 1 min), washed (2×1 mL PBS and 2×1 mL water) and then transferred to fresh eppendorfs with 1 mL water. The washed beads were washed once further in 150 μL TEV buffer (50 mM Tris, pH 8, 0.5 mM EDTA, 1 mM DTT) by centrifugation (1,400 g, 3 min) and the resuspended in 150 μL TEV buffer. 5 μL TEV protease (80 μM) was added and the reactions were rotated overnight at 29° C. The TEV digest was separated from the beads by centrifugation (1,400 g, 3 min) and the beads were washed once with water (100 μL). The samples were then acidified to a final concentration of 5% (v/v) formic acid and stored at −80° C. prior to analysis.
# The resulting probe-modified peptides were collected for MS analysis, which was performed as described above with differences in the salt bumps applied in the chromatographic gradients which in this case were 0%, 30%, 60%, 90% and 100% NH4OAc (500 μM). The protein identification searches of the MS data were performed with the following changes applied to identify the peptides modified with the corresponding fragment probe and the cleaved TEV tag. All amino acids were considered as possible residues for modification. To facilitate the computational searches, sets of up to 3 amino acids were searched using ProLuCID and filtered with DTASelect as described above. […] The isoTOP ratios for probe labeled peptides were quantified using the in-house software CIMAGE.
# For each protein in the site-of-labeling dataset, the UniProtKB accession number was used to map and collect relevant structures from the RCSB Protein Data Bank (PDB) fulfilling the following criteria: structures determined by X-ray crystallography, wild-type protein, Homo sapiens as the sole source organism. […] Fpocket 2.0 was used to detect potential binding pockets for the resultant structures with all parameters set at recommended default. Pockets with volume less than 500 Å^3 were removed from output prior to further analysis. Residues surrounding fpocket predicted binding pockets for each protein were collected to determine the number of residues overlapping with isoTOP peptides.
# α-galactosidase (GLA) = target: T2, α-galactosidase (GLA) (Homo sapiens, UniProt P06280); test: Mapping of FFF probe-modified peptides on α-galactosidase (GLA); assay type: binding
# T2 construct: endogenous in cells; host or cells: human cells (HEK293T; a subset of probes also in K562)
# T2 sequence (P06280 32-429): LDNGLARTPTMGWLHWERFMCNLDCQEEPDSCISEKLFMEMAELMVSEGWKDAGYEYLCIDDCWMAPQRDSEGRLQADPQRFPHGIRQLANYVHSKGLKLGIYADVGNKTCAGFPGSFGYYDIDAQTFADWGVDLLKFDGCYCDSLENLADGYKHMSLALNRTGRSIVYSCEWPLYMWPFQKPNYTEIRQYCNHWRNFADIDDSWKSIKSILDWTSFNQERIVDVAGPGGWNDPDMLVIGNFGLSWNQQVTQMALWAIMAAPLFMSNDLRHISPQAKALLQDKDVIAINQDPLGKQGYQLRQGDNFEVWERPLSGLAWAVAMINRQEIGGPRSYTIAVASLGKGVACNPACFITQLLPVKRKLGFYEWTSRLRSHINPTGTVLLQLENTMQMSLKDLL
# Procedure: as §3, §2
# PTGR2 = PTGR2 (Homo sapiens, UniProt Q8N8N7); test: Mapping and competition of FFF 8-modified tryptic peptides on PTGR2; assay type: binding; conditions: near the active site
# PTGR2, sequence (Q8N8N7 whole entry): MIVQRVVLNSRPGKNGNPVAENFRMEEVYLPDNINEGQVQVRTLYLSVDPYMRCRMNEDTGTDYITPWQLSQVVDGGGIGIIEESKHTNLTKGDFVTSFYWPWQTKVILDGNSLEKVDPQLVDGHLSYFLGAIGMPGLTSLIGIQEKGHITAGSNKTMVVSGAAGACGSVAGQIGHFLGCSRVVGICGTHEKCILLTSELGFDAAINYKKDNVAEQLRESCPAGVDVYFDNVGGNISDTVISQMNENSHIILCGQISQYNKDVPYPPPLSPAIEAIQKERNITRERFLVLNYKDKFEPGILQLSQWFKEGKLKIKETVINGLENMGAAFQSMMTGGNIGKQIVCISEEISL
# Procedure: as §1, §2
structure (smiles),measurement,setting,value
"CC(NC(=O)[C@H](Cc1ccccc1)NC(=O)OCc1ccccc1)C(=O)CF (stereo partly shown) [Z-FA-FMK, reference compound]",blockade of probe 9 interaction with CTSB,cathepsin B (CTSB),blocked
"C#CCCC1(CCC(=O)NCc2ccc3sccc3c2)N=N1 [probe 4, N-(Benzo[b]thiophen-5-ylmethyl)-3-(3-(but-3-yn-1-yl)-3H-diazirin-3-yl)propanamide]",Labeled Peptide of HCCS Cytochrome c-type heme lyase,"[1]; Accession P53701, residues of probe-labeled peptide, family Enzymes",200-210
same,Labeled Peptide,"[1]; HNRNPK Heterogeneous nuclear ribonucleoprotein K, residues of probe-modified peptide",423-433
same,Labeled Peptide,"[1]; IDE Insulin-degrading enzyme, residues of probe-modified peptide",312-324
same,Labeled Peptide,"[1]; NUP93 (Q8N1F7), residues of the probe-labeled peptide",539-545
same,Labeled Peptide,[1]; P07195 LDHB L-lactate,234-244
same,Labeled Peptide,"[1]; P22830 FECH Fen-ochelatase, mitochondrial",254-272
same,Labeled Peptide,"[1]; protein BCAS2 (O75934), residues of probe-labeled peptide",137-151
same,Labeled Peptide,"[1]; protein CPT2 Carnitine O-palmitoyltransferase 2, mitochondrial (P23786), residues of probe-labeled peptide",478-495
same,Labeled Peptide,"[1]; protein EMD Emerin (P50402), residues of probe-labeled peptide",212-221
same,Labeled Peptide,"[1]; protein FECH Ferrochelatase, mitochondrial (P22830), residues of probe-labeled peptide",254-272
same,Labeled Peptide,"[1]; protein FECH Ferrochelatase, mitochondrial, residues of probe-labeled peptide",254-272
same,Labeled Peptide,"[1]; protein LDHB L-lactate dehydrogenase B chain, residues of the probe-labeled peptide",234-244
same,Labeled Peptide,"[1]; protein P42166 TMPO Lamina-associated polypeptide 2, isoform alpha",621-637
same,Labeled Peptide,[1]; protein PGRMC2 Membrane-associated progesterone receptor component (O15173),136-149
same,Labeled Peptide,[1]; protein PSMD11 26S proteasome non-ATPase regulatory subunit 11 (O00231),298-304
same,Labeled Peptide,[1]; protein Q14166 TTLL12,254-287
same,Labeled Peptide,"[1]; residues of probe-labeled peptide on TUBB6 Tubulin beta-6 chain, Accession # Q9BUF5",217-241
same,Labeled Peptide of GLA Alpha-galactosidase A,"α-galactosidase (GLA); Accession P06280, residues of probe-labeled peptide, family Enzymes",68-82
same,Labeled Peptide,α-galactosidase (GLA); P06280 GLA Alpha-galactosidase A,68-82
same,Labeled Peptide,"α-galactosidase (GLA); protein GLA Alpha-galactosidase A, residues of probe-labeled peptide",68-82
"C#CCCC1(CCC(=O)N2CCC(c3ccccc3)CC2)N=N1 [probe 8, 3-(3-(But-3-yn-1-yl)-3H-diazirin-3-yl)-1-(4-phenylpiperidin-1-yl)propan-1-one]",Labeled Peptide of HNRNPA1 Heterogeneous nuclear ribonucleoprotein A1,"[1]; Accession P09651, residues of probe-labeled peptide, family Channels, Transporters, Receptors",233-265
same,Labeled Peptide of HIST1H1C Histone H1.2,"[1]; Accession P16403, residues of probe-labeled peptide, family Transcription factors, Regulators",65-75
same,Labeled Peptide,"[1]; MKI67 (P46013), residues of the probe-labeled peptide",648-659
same,Labeled Peptide,"[1]; protein BAG6 (P46379), residues of probe-labeled peptide",332-344
same,Labeled Peptide,"[1]; protein CCT8 T-complex protein 1 subunit theta (P50990), residues of probe-labeled peptide",441-450
same,Labeled Peptide,"[1]; protein CDC37 Hsp90 co-chaperone Cdc37 (Q16543), residues of probe-labeled peptide",287-307
same,Labeled Peptide,"[1]; protein DHX9 ATP-dependent RNA helicase A (Q08211), residues of probe-labeled peptide",121-141
same,Labeled Peptide,[1]; protein Q14683 SMC1A Structureal maintenance of chromosomes protein 1A,1070-1086
same,Labeled Peptide,"[1]; residues of probe-labeled peptide on UBAP2L Ubiquitin-associated protein 2-like, Accession # Q14157",239-257
same,probe-modified tryptic peptides in PTGR2,PTGR2,aa 55-66; also recorded: aa 261-278
